This note sets out measurements from patent US7101878B1 (Agouron Pharmaceuticals, Inc., priority 1998, dated 2006).

The assay concerns the target T1, mouse GnRH receptor (Mus musculus, UniProt Q01776).
T1 construct: expressed in transfected cells; host or cells: 293 cells
T1 sequence (Q01776 1-327): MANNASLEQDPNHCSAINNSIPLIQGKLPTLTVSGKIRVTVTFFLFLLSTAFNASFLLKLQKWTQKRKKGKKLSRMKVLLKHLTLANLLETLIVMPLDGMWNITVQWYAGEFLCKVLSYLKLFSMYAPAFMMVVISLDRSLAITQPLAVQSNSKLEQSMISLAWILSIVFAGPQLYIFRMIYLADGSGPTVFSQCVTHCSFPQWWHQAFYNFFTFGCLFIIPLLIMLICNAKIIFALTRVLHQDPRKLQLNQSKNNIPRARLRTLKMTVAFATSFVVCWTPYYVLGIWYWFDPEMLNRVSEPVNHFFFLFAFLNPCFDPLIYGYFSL
Description: Radioligand binding, 125I-GnRH-A, 293 cells expressing mouse GnRH receptors. As to conditions: 10 uM; read-out: % Inhib. @ 10 uM mGnRH. The procedure, abridged: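 Bound label captured on 0.1% polyethyleneimine-treated GF/C filters, washed three times with PBS, counted. IC50 derived; identical set-up for every species.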
`Cc1cc2c(cc1Cc1ccc(C(=O)NCc3ccc(F)cc3)o1)C(C)(C)CCC2(C)C` [drawing 1482]: the inhibition at 10 µM was found to be 97%.

For the molecule `Cc1cc2c(cc1Cc1ccc(C(=O)NCCn3c([N+](=O)[O-])cnc3C)o1)C(C)(C)CCC2(C)C` [drawing 1486], the inhibition at 10 µM was found to be 42%.

On to `Cc1cc2c(cc1Cc1ccc(C(=O)NCCCOC(C)C)o1)C(C)(C)CCC2(C)C` [drawing 1487], for which the inhibition at 10 µM worked out at 93%.

Take `Cc1cc2c(cc1Cc1ccc(C(=O)N(CCCN3CCN(C)CC3)Cc3cc(C)n(-c4cccc(C(F)(F)F)c4)c3C)o1)C(C)(C)CCC2(C)C` [drawing 1488]: the inhibition at 10 µM worked out at 102%.

In the case of `Cc1cc2c(cc1Cc1ccc(C(=O)N(CCN(C)C)Cc3cccc4ccccc34)o1)C(C)(C)CCC2(C)C` [drawing 1489], the inhibition at 10 µM was 103%.

On to `Cc1cc2c(cc1Cc1ccc(C(=O)N(CCCN3CCN(C)CC3)Cc3ccc(F)cc3)o1)C(C)(C)CCC2(C)C` [drawing 1490], for which the inhibition at 10 µM was 103%.

As for `Cc1cc2c(cc1Cc1ccc(C(=O)N(CCN(C)C)Cc3ccccc3[N+](=O)[O-])o1)C(C)(C)CCC2(C)C` [drawing 1491], the inhibition at 10 µM worked out at 103%.

As to `Cc1cc2c(cc1Cc1ccc(C(=O)N(CCC3CCCN3C)Cc3ccc4ccccc4c3)o1)C(C)(C)CCC2(C)C` (stereo not shown) [drawing 1492], the inhibition at 10 µM stood at 105%.

For the molecule `Cc1cc2c(cc1Cc1ccc(C(=O)N3CCC(C)CC3)o1)C(C)(C)CCC2(C)C` [drawing 1493], the inhibition at 10 µM was 82%.

As to `CCOC(=O)CN(Cc1ccccc1)C(=O)c1ccc(Cc2cc3c(cc2C)C(C)(C)CCC3(C)C)o1` [drawing 1494], the inhibition at 10 µM was found to be 62%.

Regarding `Cc1cc2c(cc1Cc1ccc(C(=O)N3CCC(C(=O)c4ccccc4)CC3)o1)C(C)(C)CCC2(C)C` [drawing 1495], the inhibition at 10 µM turned out to be 59%.

As to `COc1cccc(N2CCN(C(=O)c3ccc(Cc4cc5c(cc4C)C(C)(C)CCC5(C)C)o3)CC2)c1` [drawing 1497], the inhibition at 10 µM came out at 67%.

As to `Cc1cc2c(cc1Cc1ccc(C(=O)NCCSCCO)o1)C(C)(C)CCC2(C)C` [drawing 1498], the inhibition at 10 µM came out at 101%.

Consider `CCC(C)CNC(=O)c1ccc(Cc2cc3c(cc2C)C(C)(C)CCC3(C)C)o1` (stereo not shown) [drawing 1499], for which the inhibition at 10 µM amounted to 73%.

As to `Cc1cc2c(cc1Cc1ccc(C(=O)N(C)CC3OCCO3)o1)C(C)(C)CCC2(C)C` [drawing 1500], the inhibition at 10 µM was found to be 86%.

Regarding `Cc1cc2c(cc1Cc1ccc(C(=O)N(CC(C)C)CC(C)C)o1)C(C)(C)CCC2(C)C` [drawing 1501], the inhibition at 10 µM was found to be 85%.

As to `Cc1cc2c(cc1Cc1ccc(C(=O)N3C[C@H]4CCCC[C@H]4CC3C(=O)NC(C)(C)C)o1)C(C)(C)CCC2(C)C` (stereo partly shown) [drawing 1502], the inhibition at 10 µM was found to be 52%.

In the case of `CC(=O)N1CCCN(C(=O)c2ccc(Cc3cc4c(cc3C)C(C)(C)CCC4(C)C)o2)CC1` [drawing 1503], the inhibition at 10 µM came to 73%.

As for `Cc1cc2c(cc1Cc1ccc(C(=O)N(Cc3ccco3)C3CC(=O)N(C)C3=O)o1)C(C)(C)CCC2(C)C` (stereo not shown) [drawing 1504], the inhibition at 10 µM was determined as 69%.

On to `COC(CNC(=O)c1ccc(Cc2cc3c(cc2C)C(C)(C)CCC3(C)C)o1)OC` [drawing 1505], for which the inhibition at 10 µM amounted to 103%.

In the case of `CCN(CC)CCNC(=O)c1ccc(Cc2cc3c(cc2C)C(C)(C)CCC3(C)C)o1` [drawing 1506], the inhibition at 10 µM is 94%.

For `Cc1cc2c(cc1Cc1ccc(C(=O)NCC(C)(C)CN(C)C)o1)C(C)(C)CCC2(C)C` [drawing 1507], the inhibition at 10 µM was found to be 98%.

`Cc1cc2c(cc1Cc1ccc(C(=O)NC3CCS(=O)(=O)C3)o1)C(C)(C)CCC2(C)C` (stereo not shown) [drawing 1508]: the inhibition at 10 µM was determined as 90%.

Take `Cc1cc2c(cc1Cc1ccc(C(=O)N3CCC(O)CC3)o1)C(C)(C)CCC2(C)C` [drawing 1510]: the inhibition at 10 µM was determined as 77%.

Consider `Cc1cc2c(cc1Cc1ccc(C(=O)N3CCC4(CC3)C(=O)NCN4c3ccccc3)o1)C(C)(C)CCC2(C)C` [drawing 1511], for which the inhibition at 10 µM is 72%.
